Assay results as given in ChEMBL document CHEMBL4680347, “Discovery of novel 1,3,5-triazine derivatives as potent inhibitor of cervical cancer via dual inhibition of PI3K/mTOR” (Bioorg Med Chem, 2021).

Assays:
[1] = target: Serine/threonine-protein kinase mTOR (Homo sapiens, UniProt P42345); experiment: Inhibition of mTOR (unknown origin) measured after 45 mins by LANCE Ultra assay
[2] = target: Phosphatidylinositol 4,5-bisphosphate 3-kinase catalytic subunit alpha isoform (Homo sapiens, UniProt P42336); experiment: Inhibition of PI3Kalpha (unknown origin) measured after 1 hr by ADP-glo plus luminescence assay
Chain of Phosphatidylinositol 4,5-bisphosphate 3-kinase catalytic subunit alpha isoform (P42336 whole entry, canonical isoform): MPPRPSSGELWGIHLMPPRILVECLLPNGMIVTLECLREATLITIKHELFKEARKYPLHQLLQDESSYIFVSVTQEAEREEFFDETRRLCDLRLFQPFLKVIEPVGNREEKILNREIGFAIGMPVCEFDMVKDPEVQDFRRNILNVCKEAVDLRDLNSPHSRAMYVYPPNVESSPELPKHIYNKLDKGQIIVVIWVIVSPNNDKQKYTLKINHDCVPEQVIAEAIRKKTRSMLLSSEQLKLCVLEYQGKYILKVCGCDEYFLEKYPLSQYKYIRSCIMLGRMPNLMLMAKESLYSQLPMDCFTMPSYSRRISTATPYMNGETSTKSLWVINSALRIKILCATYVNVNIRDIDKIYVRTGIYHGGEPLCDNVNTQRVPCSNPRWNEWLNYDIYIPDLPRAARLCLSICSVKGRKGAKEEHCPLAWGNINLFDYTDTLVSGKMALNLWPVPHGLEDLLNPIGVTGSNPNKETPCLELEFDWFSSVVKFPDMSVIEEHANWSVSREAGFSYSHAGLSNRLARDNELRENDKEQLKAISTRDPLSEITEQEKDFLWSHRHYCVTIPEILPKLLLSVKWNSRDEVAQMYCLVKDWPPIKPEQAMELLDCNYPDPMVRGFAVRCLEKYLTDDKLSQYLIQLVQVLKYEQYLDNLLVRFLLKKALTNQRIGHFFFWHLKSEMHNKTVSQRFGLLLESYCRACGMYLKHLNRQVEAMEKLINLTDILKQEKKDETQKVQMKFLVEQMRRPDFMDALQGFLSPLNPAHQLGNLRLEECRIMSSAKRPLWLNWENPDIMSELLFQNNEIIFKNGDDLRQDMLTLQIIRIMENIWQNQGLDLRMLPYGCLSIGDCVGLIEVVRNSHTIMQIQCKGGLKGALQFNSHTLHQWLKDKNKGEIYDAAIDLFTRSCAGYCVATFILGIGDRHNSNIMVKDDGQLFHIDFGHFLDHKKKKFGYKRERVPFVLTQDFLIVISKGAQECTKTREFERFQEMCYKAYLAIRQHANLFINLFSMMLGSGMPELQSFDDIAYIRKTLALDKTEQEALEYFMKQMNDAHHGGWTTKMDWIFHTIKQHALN

| SMILES | IC50 [1] | IC50 [2] |
| --- | --- | --- |
| Cc1ccc(S(=O)(=O)N2CCN(c3nc(NCCN4CCOCC4)nc(N4CCOCC4)n3)CC2)cc1 | 12.8 nM | 6.03 nM |
| COc1ccc(S(=O)(=O)N2CCN(c3nc(NCCN4CCOCC4)nc(N4CCOCC4)n3)CC2)cc1 | 20.8 nM | 8.9 nM |
| Cc1ccccc1S(=O)(=O)N1CCN(c2nc(NCCN3CCOCC3)nc(N3CCOCC3)n2)CC1 | 32.3 nM | 32 nM |
| O=S(=O)(c1cccc(Cl)c1)N1CCN(c2nc(NCCN3CCOCC3)nc(N3CCOCC3)n2)CC1 | – | 37.5 nM |

The remaining lines, values ahead:

| IC50 [1] | IC50 [2] | SMILES |
| --- | --- | --- |
| 35.3 nM | 55.4 nM | O=S(=O)(c1ccccc1Cl)N1CCN(c2nc(NCCN3CCOCC3)nc(N3CCOCC3)n2)CC1 |
| 35.3 nM | 88 nM | O=S(=O)(c1ccc(F)cc1)N1CCN(c2nc(NCCN3CCOCC3)nc(N3CCOCC3)n2)CC1 |
| 98.3 nM | 123 nM | O=S(=O)(c1ccccc1F)N1CCN(c2nc(NCCN3CCOCC3)nc(N3CCOCC3)n2)CC1 |
| 22.2 nM | 24.6 nM | COc1cccc(S(=O)(=O)N2CCN(c3nc(NCCN4CCOCC4)nc(N4CCOCC4)n3)CC2)c1 |
| 66.3 nM | 42.2 nM | O=[N+]([O-])c1ccccc1S(=O)(=O)N1CCN(c2nc(NCCN3CCOCC3)nc(N3CCOCC3)n2)CC1 |
